For the assay, the system named is GABAA receptors. Nature of the assay: Influence on the binding of muscimol to GABAA receptors (rat brain). To be noted: 5 nM [3H] muscimol, cerebral rat cortex membranes. The procedure:
The following tests for determining the influence of allopregnanolone, 3-α-OH-CMA and 3-β-OH-CMA on the binding of muscimol to GABAA receptors (in rats) are based on the publication of the experimental specifications of Snodgrass, S. R. (Nature, 1979, V273, p. 392-394). The corresponding disclosure is included herein as a reference and is part of the disclosure of the present application.
Membrane preparations of cerebral rat cortex material were prepared. 5 nM [^3H] muscimol was used as a reference substance and 10 μM muscimol was used to determine the nonspecific binding. The substances ([^3H] muscimol, allopregnanolone) were each incubated at the receptor for 10 minutes at a temperature of approximately 4° C. The stock solution (5×10^−2 M) of allopregnanolone was prediluted in 75% DMSO at a ratio of 1:10 and was subsequently further diluted in 25% DMSO at a ratio of 1:5. The final concentration of allopregnanolone in the test was 1×10^−10 M, 1×10^−9 M, 1×10^−8 M, 1×10^−7 M, 1×10^−6 M and 1×10^−5 M respectively. The washing steps and the determination of radioactivity were carried out as previously described under point 1.
The influence of 3-α-OH-CMA and 3-β-OH-CMA on the binding of muscimol to GABAA receptors (in rats) was determined in a similar manner to the method described previously. Instead of allopregnanolone, 3-α-OH-CMA or 3-β-OH-CMA were used.

In the case of `CC(=O)O[C@]1(C(C)=O)CC[C@H]2[C@@H]3C=C(Cl)C4=C[C@H](O)CC[C@]4(C)[C@H]3CC[C@@]21C` [3-α-OH-CMA, 3α-hydroxy-6-chloro-17α-acetoxy-4,6-pregnadien-20-one], the “increase of binding of radioactively labelled muscimol” value (“increase” for short) (0.001 μM test substance) is 12%.

Turning to `CC(=O)O[C@]1(C(C)=O)CC[C@H]2[C@@H]3C=C(Cl)C4=C[C@@H](O)CC[C@]4(C)[C@H]3CC[C@@]21C` [3-β-OH-CMA, 3β-hydroxy-6-chloro-17α-acetoxy-4,6-pregnadien-20-one], under “0.1 μM test substance”, the “increase” value is listed as 31%.

`CC(=O)[C@H]1CC[C@H]2[C@@H]3CC[C@H]4C[C@H](O)CC[C@]4(C)[C@H]3CC[C@]12C` [allopregnanolone, reference compound]: the “increase” value (1 μM test substance) came out at 38%.

The record behind these values is patent publication US20090023694A1, “Contraceptive” (GRUNENTHAL GMBH, priority 2006, published 2009).
